These results are taken from patent publication US20260124167A1, “SIRTUIN ACTIVATOR OR EXPRESSION ENHANCER, NAD+ INCREASING AGENT, AND SENESCENT CELL INHIBITOR” (WAKUNAGA PHARMACEUTICAL CO., LTD., priority 2022, published 2026).

Test [1] has as its target T1, SIRT1 (Mus musculus, UniProt Q923E4).
T1 construct: from tissue; host or cells: cerebral cortex of SAMP8 mice
T1 sequence (Q923E4 1-737): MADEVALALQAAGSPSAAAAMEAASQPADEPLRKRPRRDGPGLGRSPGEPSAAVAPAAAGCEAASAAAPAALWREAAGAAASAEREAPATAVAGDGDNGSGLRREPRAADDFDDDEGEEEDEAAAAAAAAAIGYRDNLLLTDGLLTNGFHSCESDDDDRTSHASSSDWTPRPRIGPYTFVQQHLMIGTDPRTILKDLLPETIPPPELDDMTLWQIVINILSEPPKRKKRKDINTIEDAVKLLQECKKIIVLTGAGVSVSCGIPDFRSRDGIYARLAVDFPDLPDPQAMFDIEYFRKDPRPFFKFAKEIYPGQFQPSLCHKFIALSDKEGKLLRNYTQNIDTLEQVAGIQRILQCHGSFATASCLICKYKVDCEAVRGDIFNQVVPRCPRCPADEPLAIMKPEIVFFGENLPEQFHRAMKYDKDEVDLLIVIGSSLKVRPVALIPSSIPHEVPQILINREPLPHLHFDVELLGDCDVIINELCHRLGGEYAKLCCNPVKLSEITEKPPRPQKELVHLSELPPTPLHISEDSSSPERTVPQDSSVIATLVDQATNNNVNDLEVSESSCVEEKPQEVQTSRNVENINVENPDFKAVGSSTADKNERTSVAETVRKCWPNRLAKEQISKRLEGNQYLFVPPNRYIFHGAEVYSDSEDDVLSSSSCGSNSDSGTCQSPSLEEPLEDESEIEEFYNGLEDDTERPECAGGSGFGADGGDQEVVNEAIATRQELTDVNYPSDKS
In words: SIRT1 activation action (in vivo), cerebral cortex lysate, SIRT1_GLO kit. To be noted: SAMP8 mice, single oral dose, 180 minutes after administration; FIG. 2. The protocol:
(§1) (a) About 5 mg of S-1-propenylcysteine (cis/trans mixture) produced in Preparation Example 2 was weighed precisely, and dissolved in 10 mL of purified water to prepare an administration liquid. (b) About 6 mg of S-1-propenylcysteine (cis/trans mixture) produced in Preparation Example 2 was weighed precisely and dissolved in 1 mL of culture liquid. The liquid was used as a stock solution, diluted appropriately, and subjected to an in vitro test.
(§2) Animals for evaluating the biological activity were bred as follows. Senescence-accelerated mice SAMP8 (male) for testing were purchased from Japan SLC, Inc. After purchase, the animals were acclimatized for one week and used as animals for the evaluation tests.
A SIRT1_GLO kit manufactured by Promega Corporation was purchased to measure the sirtuins activity. A lysate of the cerebral cortex was placed in a 96-well plate, various reaction reagents were added, and then luminous intensity of luciferase was measured by a plate reader.
A single dose of the sample prepared in the above (1) (a) was orally administrated to animals for the evaluation tests in the above (2), and then cerebral cortices of such animals were extracted 15, 30, 60, and 180 minutes later. […] Centrifugation was performed and the sirtuins activity in the supernatant thereof was measured. […]

Test [2] deals with SIRT1 protein. Put plainly: SIRT1 protein increasing action (in vivo), hippocampus, Western Blotting. To be noted: SAMP8 mice, repeated oral administration for two weeks; FIG. 3. The protocol:
as §1, §2
(§3) After repeated oral administration of the sample prepared in the above (1) (a) to animals for the evaluation tests in the above (2) for two weeks, hippocampi of such animals were excised. After the hippocampi were crushed using an automatic tissue crusher, the cells were lysed with a RIPA cell lysis buffer manufactured by Millipore Corporation which was diluted 10-fold with purified water added with combined protease/phosphatase inhibitors manufactured by Thermo Fisher Scientific K.K., and then centrifuged (10,000 rpm, 10 min, 4° C.), and the supernatant was used as a cell extract. The cell extract was used for analysis by Western Blotting according to a conventional method. […]
Background: Immunoblotting shows a protein as a band on a membrane.

Test [3] has as its system NAD^+. In words: NAD+ amount increasing action (in vivo), NAD+/NADH Assay Kit. The following applies: SAMP8 mice, single oral dose (180 minutes later) and mixed with food for one month; FIG. 4. The protocol: as §1, §2
A single dose of the sample prepared in (1) (a) was orally administered to animals for the evaluation tests in the above (2), and then cerebral cortices of such animals were excised 180 minutes later. In addition, the sample prepared in the above (1) (a) was mixed with food and fed to animals for the evaluation tests in the above (2) for one month, and then cerebral cortices of such animals were excised. The NAD^+ amount in the cerebral cortices was measured using NAD^+/NADH Assay Kit manufactured by Dojindo Laboratories. S-1-propenylcysteine increased NAD^+ amount.

The test system of test [4] is p53 protein. Put plainly: Suppression of cellular senescence marker p53 protein in the hippocampus (in vivo). To be noted: SAMP8 mice, repeated oral administration for six weeks; FIG. 5. Here is the method: as §1, §2
as §3, with “six” for “two”, “a protease inhibitor and a phosphatase inhibitor” for “combined protease/phosphatase inhibitors”, “Roche,” for “Thermo Fisher Scientific K.K.,”

The test system of test [5] is SIRT1 gene. In words: Enhancement of SIRT1 gene expression in kidney (in vivo), real-time PCR. The following applies: SAMP8 mice, repeated oral administration for two weeks, FIG. 6. The protocol:
as §1, §2
After repeated oral administration of the sample prepared in the above (1) (a) to the animals for the evaluation tests in the above (2) for two weeks, kidneys of such animals were excised. The kidneys were crushed using an automatic tissue crusher, and then RNA was extracted using a TRIzol solution manufactured by Thermo Fisher Scientific K.K. CDNA was synthesized using PRIMEScript RT reagent Kit with gEraser manufactured by Takara. The synthesized CDNA was subjected to real-time PCR using KAPA SYBR Fast qPCR kit manufactured by Nippon Genetics Co., Ltd. The results are shown in FIG. 6. S-1-propenylcysteine increased the SIRT1 expression in the mouse kidney.
For orientation: Real-time PCR tracks product formation cycle by cycle.

Test [6] deals with p16 gene. In words: Suppression of senescent cell marker p16 gene expression in the kidney (in vivo). The following applies: SAMP8 mice, repeated oral administration for two weeks, real-time PCR; FIG. 7. Here is the method: as §1, §2
(§4) After repeated oral administration of the sample prepared in the above (1) (a) to the animals for the evaluation tests in the above (2) for two weeks, kidneys of such animals were excised. The kidneys were crushed using an automatic tissue crusher, and then RNA was extracted using a TRIzol solution manufactured by Thermo Fisher Scientific K.K. CDNA was synthesized using PRIMEScript RT reagent Kit with gEraser manufactured by Takara. The synthesized cDNA was subjected to real-time PCR using KAPA SYBR Fast qPCR kit manufactured by Nippon Genetics Co., Ltd. The results are shown in FIG. 7. […]

The subject of test [7] is p21 gene. In words: Suppression of senescent cell marker p21 gene expression in the kidney (in vivo). The following applies: SAMP8 mice, repeated oral administration for two weeks, real-time PCR; FIG. 7. Here is the method:
as §1, §2, §4

Test [8] relates to KIM-1. Put plainly: Inhibitory action on kidney injuries (in vivo), KIM-1 Western Blotting. The following applies: SAMP8 mice, repeated oral administration for two weeks, FIG. 8. The protocol:
as §1, §2
(§5) After repeated oral administration of the sample prepared in the above (1) (a) to the animals for the evaluation tests in the above (2) for two weeks, kidneys of such animals were excised. After the kidneys were crushed using an automatic tissue crusher, the cells were lysed with an RIPA cell lysis buffer manufactured by Millipore Corporation which was diluted 10-fold with purified water added with a protease inhibitor and a phosphatase inhibitor manufactured by Roche and then centrifuged (10,000 rpm, 10 min, 4° C.), and the supernatant was used as a cell extract. The cell extract was used for analysis by Western Blotting according to a conventional method. […]

Test [9] relates to lipocalin-2 (NGAL). In words: Inhibitory action on kidney injuries (in vivo), NGAL Western Blotting. To be noted: SAMP8 mice, repeated oral administration for two weeks, FIG. 8. The protocol: as §1, §2, §5
In test [10] the test system is Senescence-accelerated mice SAMP8. Put plainly: Cognitive/memory retention action (in vivo), passive avoidance test. The following applies: mixed with food for four months, holding trial after two months, FIG. 9. The protocol:
as §1, §2
The sample prepared in the above (1) (a) was mixed with food and fed to animals for evaluation test in the above (2) for four months, and then a passive avoidance test was performed. The passive avoidance test is a test utilizing a habit that a mouse prefers a dark place, and on Day 1, a mouse already in a bright room was moved to a dark room while receiving an electrical shock (50 V/1 second), and the time it took for the mouse to enter the dark room was taken as response latency of an acquisition trial. After two months, the mouse was put in the bright room again and the time it took to move to the dark room (the response latency of a holding trial) was used as an index of memory.

The test system of test [11] is NAD^+. Put plainly: NAD+ amount increasing action in kidney, skeletal muscle, and liver (in vivo). The following applies: SAMP8 mice, single oral dose, 60 minutes later; FIG. 10. The protocol: as §1, §2
A single dose of the sample prepared in the above (1) (a) was orally administrated to animals for the evaluation tests in the above (2), and then cerebral cortexes, livers, kidneys, and skeletal muscles of such animals were extracted 60 minutes later. The NAD^+ amounts in the cerebral cortexes, livers, kidneys, and skeletal muscles were measured using NAD^+/NADH Assay Kit manufactured by Dojindo Laboratories. S-1-propenylcysteine increased the NAD^+ amount.

The subject of test [12] is SIRT1 protein. Put plainly: SIRT1 protein increasing action in cerebral cortex, hippocampus, heart, lung, liver, kidney, and skeletal muscle (in vivo). To be noted: SAMP8 mice, about 10 mg in 10 mL liquid, repeated oral administration for two weeks; FIG. 11. The protocol: as §2
About 10 mg of S-1-propenylcysteine (cis/trans mixture) produced in Preparation Example 2 was weighed precisely, and dissolved in 10 mL of purified water to prepare an administration liquid. After repeated oral administration of the prepared sample to animals for the evaluation tests in the above (2) for two weeks, cerebral cortexes, hippocampi, hearts, lungs, livers, kidneys, and skeletal muscles of such animals were excised. After the cerebral cortexes, hippocampi, hearts, lungs, livers, kidneys, and skeletal muscles were crushed using an automatic tissue crusher, the cells were lysed with a RIPA cell lysis buffer manufactured by Millipore Corporation which was diluted 10-fold with purified water added with combined protease/phosphatase inhibitors manufactured by Thermo Fisher Scientific K.K., and then centrifuged (10,000 rpm, 10 min, 4° C.), and the supernatant was used as a cell extract. The cell extract was used for analysis by Western Blotting according to a conventional method. […]

The subject of test [13] is SIRT1 protein. Put plainly: SIRT1 protein increasing action in hypothalamus (in vivo). The following applies: SAMP8 mice fed diet mixed with sample (0.001% liquid) for 10 months; FIG. 12. The protocol: S-1-propenylcysteine (cis/trans mixture) produced in Preparation Example 2 was dissolved at a concentration of 0.001% in purified water to prepare an administration liquid. Animals for evaluating the biological activity were bred as follows. Senescence-accelerated mice SAMR1 (male) and SAMP8 (male) for testing were purchased from Japan SLC, Inc. After purchase, the animals were acclimatized for one week and used as animals for the evaluation tests. These animals for the evaluation tests were fed with regular diet and SAMP8 were fed with the diet mixed with the sample prepared above for 10 months, and then hypothalamuses of such animals were excised. After the hypothalamuses were crushed using an automatic tissue crusher, the cells were lysed with a RIPA cell lysis buffer manufactured by Millipore Corporation which was diluted 10-fold with purified water added with combined protease/phosphatase inhibitors manufactured by Thermo Fisher Scientific K.K., and then centrifuged (10,000 rpm, 10 min, 4° C.), and the supernatant was used as a cell extract. The cell extract was used for analysis by Western Blotting according to a conventional method. An anti-SIRT1 antibody (manufactured by Biolegend) and an anti-β-actin antibody (manufactured by Fujifilm Wako Pure Chemical Corporation) were used as antibodies. S-1-propenylcysteine increased the SIRT1 protein mass.

Test [14] concerns SIRT1 protein. In words: SIRT1 protein amount-increasing effect in liver and heart (in vivo). Also noted: species or system mice. The following applies: animals prepared as in (12) (SAMR1, SAMP8), repeated oral administration for two weeks; FIG. 13.

As for `CC=CSC[C@H](N)C(=O)O` [S-1-propenylcysteine], in test [1], the “sirtuin activity in cerebral cortex” value is on record as “increased”. Moreover, the “SIRT1 protein mass in hippocampus” value in test [2] is “increased”. In addition, in test [3], the “NAD^+ amount in cerebral cortices” value was “increased”. In addition, the “p53 protein mass in hippocampus” value in test [4] was “reduced”. For the same compound, in test [5], the “SIRT1 expression in kidney” value is “increased”. In test [6], the “cells expressing p16 gene in the kidneys” value is on record as “reduced”. For the same compound, in test [7], the “cells expressing p21 gene in the kidneys” value was “reduced”. Moreover, in test [8], the “KIM-1 (marker of kidney injuries) in kidney” value is reported as “reduced”. For the same compound, the “NGAL (marker of kidney injuries) in kidney” value in test [9] is “reduced”. The “cognitive and memory functions (response latency, passive avoidance test)” value in test [10] is “ameliorated aging-related decline in cognitive and memory functions”. Moreover, the “NAD^+ amount in cerebral cortexes, livers, kidneys, and skeletal muscles” value in [11] is “increased”. Further, in test [12], the “SIRT1 protein mass in cerebral cortexes, hippocampi, hearts, lungs, livers, kidneys, and skeletal muscles” value is recorded as “increased”. For the same compound, the “SIRT1 protein mass in hypothalamus” value in test [13] is reported as “increased”. For the same compound, the “SIRT1 protein mass in livers and hearts” value in test [14] is given as “increased”.
